Where a name gives a salt, the structure may show the parent alone.

In this test the target is T1, human B1 (Homo sapiens, UniProt P46663).
T1 construct: host or cells: CHO-K1
T1 sequence (P46663 1-353): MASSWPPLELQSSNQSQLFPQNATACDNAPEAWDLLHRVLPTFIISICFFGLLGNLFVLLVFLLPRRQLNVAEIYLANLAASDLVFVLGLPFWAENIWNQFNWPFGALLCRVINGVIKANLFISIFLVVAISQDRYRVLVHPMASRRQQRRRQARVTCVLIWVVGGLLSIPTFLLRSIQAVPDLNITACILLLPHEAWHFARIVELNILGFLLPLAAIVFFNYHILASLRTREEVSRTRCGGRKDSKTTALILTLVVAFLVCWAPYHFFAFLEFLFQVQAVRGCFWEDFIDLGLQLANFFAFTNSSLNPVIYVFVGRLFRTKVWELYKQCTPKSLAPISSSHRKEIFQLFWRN
Briefly: Calcium flux assay for Bradykinin B1 antagonist, CHO-K1 cell line expressing human B1. Format: cell-based. Particulars: CHO-K1 cells expressing human B1, agonist Lys-(Des-Arg)-Bradykinin, read-out: Potency (IC50 value against human B1). In outline:
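Inhibition of B1 agonist-evoked intracellular Ca2+ rise was followed by continuous fluorescence at 538 nm, with integrated, background-normalized signals plotted versus log compound concentration. Test compounds (eight 10-fold dilutions, triplicate, 1% DMSO final) were added 30 min at 25° C beforehand to Fluo-4AM-loaded human B1 CHO-K1 cells in pH 7.4 assay buffer.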
(A change in cytosolic calcium serves as a functional read-out for many receptors and channels.)
The IC50 is the point on the concentration scale where inhibition reaches its midpoint. Take `COc1cc(C)c(S(=O)(=O)N(Cc2nc(C(=O)N3CCN(Cc4ccnc(N5CCCC5)c4)CC3)co2)C2CC2)c(C)c1` [Ex 256, N-Cyclopropyl-4-methoxy-2,6-dimethyl-N-{[4-({4-[(2-pyrrolidin-1-ylpyridin-4-yl)methyl]piperazin-1-yl}carbonyl)-1,3-oxazol-2-yl]methyl}benzenesulfonamide]: the IC50 lay in the range of 100 to 1000 nM.
On to `COc1cc(C)c(S(=O)(=O)N(Cc2nc(C(=O)N(C)CCOc3ccncc3)co2)C2CC2)c(C)c1` [Ex 257, 2-({Cyclopropyl[(4-methoxy-2,6-dimethylphenyl)sulfonyl]amino}methyl)-N-methyl-N-[2-(pyridin-4-yloxy)ethyl]-1,3-oxazole-4-carboxamide], for which the IC50 lay within 100 to 1000 nM.
For the molecule `COc1cc(C)c(S(=O)(=O)N(C)Cc2nnc(C(=O)N3CCN(CC4CCN(C)CC4)CC3)o2)c(C)c1` [Ex 258, 4-Methoxy-N,2,6-trimethyl-N-{[5-({4-[(1-methylpiperidin-4-yl)methyl]piperazin-1-yl}carbonyl)-1,3,4-oxadiazol-2-yl]methyl}benzenesulfonamide], the 50% inhibitory concentration (IC50) was below 10 nM.
With `COc1cc(C)c(S(=O)(=O)N(C)Cc2nnc(C(=O)N3CCN(CCCN4CCCC4)CC3)o2)c(C)c1` [Ex 259, 4-Methoxy-N,2,6-trimethyl-N-[(5-{[4-(3-pyrrolidin-1-ylpropyl)piperazin-1-yl]carbonyl}-1,3,4-oxadiazol-2-yl)methyl]benzenesulfonamide], the IC50 lay within 10 to 100 nM.
Regarding `COc1cc(C)c(S(=O)(=O)N(C)Cc2nnc(C(=O)N3CCN(Cc4ccc(OC)nc4)CC3)o2)c(C)c1` [Ex 260, 4-Methoxy-N-{[5-({4-[(6-methoxypyridin-3-yl)methyl]piperazin-1-yl}carbonyl)-1,3,4-oxadiazol-2-yl]methyl}-N,2,6-trimethylbenzenesulfonamide trifluoroacetate], the IC50 was in the range of 10 to 100 nM.
Take `COc1cc(C)c(S(=O)(=O)N(C)Cc2nnc(C(=O)N3CCN(Cc4ccc(N5CCCC5)nc4)CC3)o2)c(C)c1` [Ex 261, 4-Methoxy-N,2,6-trimethyl-N-{[5-({4-[(6-pyrrolidin-1-ylpyridin-3-yl)methyl]piperazin-1-yl}carbonyl)-1,3,4-oxadiazol-2-yl]methyl}benzenesulfonamide trifluoroacetate]: the IC50 was below 10 nM.
For the molecule `COc1cc(C)c(S(=O)(=O)N(C)Cc2nnc(C(=O)N3CCN(Cc4ccc(C(F)(F)F)nc4)CC3)o2)c(C)c1` [Ex 262, 4-Methoxy-N,2,6-trimethyl-N-({5-[(4-{[6-(trifluoromethyl)pyridin-3-yl]methyl}piperazin-1-yl)carbonyl]-1,3,4-oxadiazol-2-yl}methyl)benzenesulfonamide trifluoroacetate], the IC50 lay in the range of 100 to 1000 nM.
Turning to `COc1cc(C)c(S(=O)(=O)N(C)Cc2nnc(C(=O)N3CCN(CC4CCN(C(=O)OC(C)(C)C)CC4)CC3)o2)c(C)c1` [Ex 263, tert-Butyl 4-[(4-{[5-({[(4-methoxy-2,6-dimethylphenyl)sulfonyl](methyl)amino}methyl)-1,3,4-oxadiazol-2-yl]carbonyl}piperazin-1-yl)methyl]piperidine-1-carboxylate], the IC50 is 100 to 1000 nM.
For `COc1cc(C)c(S(=O)(=O)N(C)Cc2nnc(C(=O)N3CCN(CC4CCN(C(C)C)CC4)CC3)o2)c(C)c1` [Ex 264, 4-Methoxy-N,2,6-trimethyl-N-({5-[(4-{[1-(1-methylethyl)piperidin-4-yl]methyl}piperazin-1-yl)carbonyl]-1,3,4-oxadiazol-2-yl}methyl)benzenesulfonamide trifluoroacetate], the IC50 lay in the range of 100 to 1000 nM.
As to `COc1cc(C)c(S(=O)(=O)N(C)Cc2nnc(C(=O)N3CCN(CC4CCN(C5CCC5)CC4)CC3)o2)c(C)c1` [Ex 265, N-{[5-({4-[(1-Cyclobutylpiperidin-4-yl)methyl]piperazin-1-yl}carbonyl)-1,3,4-oxadiazol-2-yl]methyl}-4-methoxy-N,2,6-trimethylbenzenesulfonamide trifluoroacetate], the IC50 was in the range of 100 to 1000 nM.
Take `COc1cc(C)c(S(=O)(=O)N(C)Cc2nnc(C(=O)N3CCN(CC4CCN(CC(C)(C)O)CC4)CC3)o2)c(C)c1` [Ex 266, N-({5-[(4-{[1-(2-Hydroxy-2-methylpropyl)piperidin-4-yl]methyl}piperazin-1-yl)carbonyl]-1,3,4-oxadiazol-2-yl}methyl)-4-methoxy-N,2,6-trimethylbenzenesulfonamide]: the half-inhibitory concentration (IC50) was 100 to 1000 nM.
With `COc1cc(C)c(S(=O)(=O)N(C)Cc2nnc(C(=O)N(C)CCc3ccc(C4=NCCN4)cc3)o2)c(C)c1` [Ex 267, N-{2-[4-(4,5-Dihydro-1H-imidazol-2-yl)phenyl]ethyl}-5-({[(4-methoxy-2,6-dimethylphenyl)sulfonyl](methyl)amino}methyl)-N-methyl-1,3,4-oxadiazole-2-carboxamide], the IC50 was below 10 nM.
Regarding `COc1cc(C)c(S(=O)(=O)N(C)Cc2nnc(C(=O)N(C)Cc3ccc(CN4CCCC4)cc3)o2)c(C)c1` [Ex 268, 5-({[(4-Methoxy-2,6-dimethylphenyl)sulfonyl](methyl)amino}methyl)-N-methyl-N-[4-(pyrrolidin-1-ylmethyl)benzyl]-1,3,4-oxadiazole-2-carboxamide trifluoroacetate], the IC50 lay within 10 to 100 nM.
As to `COc1cc(C)c(S(=O)(=O)N(C)Cc2nnc(C(=O)NCCc3ccc(C4=NCCN4)cc3)o2)c(C)c1` [Ex 269, N-{2-[4-(4,5-Dihydro-1H-imidazol-2-yl)phenyl]ethyl}-5-({[(4-methoxy-2,6-dimethylphenyl)sulfonyl](methyl)amino}methyl)-1,3,4-oxadiazole-2-carboxamide trifluoroacetate], the IC50 was below 10 nM.
The same measure for `COc1cc(C)c(S(=O)(=O)N(C)Cc2nnc(C(=O)N3CCN(C4CCN(C)CC4)CC3)o2)c(C)c1` [Ex 270, 4-Methoxy-N,2,6-trimethyl-N-[(5-{[4-(1-methylpiperidin-4-yl)piperazin-1-yl]carbonyl}-1,3,4-oxadiazol-2-yl)methyl]benzenesulfonamide trifluoroacetamide]: 100 to 1000 nM; for `COc1cc(C)c(S(=O)(=O)N(Cc2nnc(C(=O)N3CCN(C4CCN(C)CC4)CC3)o2)C2CC2)c(C)c1` [Ex 271, N-Cyclopropyl-4-methoxy-2,6-dimethyl-N-[(5-{[4-(1-methylpiperidin-4-yl)piperazin-1-yl]carbonyl}-1,3,4-oxadiazol-2-yl)methyl]benzenesulfonamide]: 10 to 100 nM; for `COc1cc(C)c(S(=O)(=O)N(Cc2nnc(C(=O)N3CCN(CC4CCN(C)CC4)CC3)o2)C2CC2)c(C)c1` [Ex 272, N-Cyclopropyl-4-methoxy-2,6-dimethyl-N-{[5-({4-[(1-methylpiperidin-4-yl)methyl]piperazin-1-yl}carbonyl)-1,3,4-oxadiazol-2-yl]methyl}benzenesulfonamide]: below 10 nM.
Take `COc1cc(C)c(S(=O)(=O)N(Cc2nnc(C(=O)N3CCN(CCCN4CCCC4)CC3)o2)C2CC2)c(C)c1` [Ex 273, N-Cyclopropyl-4-methoxy-2,6-dimethyl-N-[(5-{[4-(3-pyrrolidin-1-ylpropyl)piperazin-1-yl]carbonyl}-1,3,4-oxadiazol-2-yl)methyl]benzenesulfonamide]: the 50% inhibitory concentration (IC50) is below 10 nM.
With `COc1cc(C)c(S(=O)(=O)N(Cc2nnc(C(=O)N3CCC(CCN4CCCC4)CC3)o2)C2CC2)c(C)c1` [Ex 274, N-Cyclopropyl-4-methoxy-2,6-dimethyl-N-[(5-{[4-(2-pyrrolidin-1-ylethyl)piperidin-1-yl]carbonyl}-1,3,4-oxadiazol-2-yl)methyl]benzenesulfonamide], the IC50 is below 10 nM.
As for `COc1cc(C)c(S(=O)(=O)N(Cc2nnc(C(=O)N3CCN(CC4CCCN(C)C4)CC3)o2)C2CC2)c(C)c1` (stereo not drawn) [Ex 275, N-Cyclopropyl-4-methoxy-2,6-dimethyl-N-{[5-({4-[(1-methylpiperidin-3-yl)methyl]piperazin-1-yl}carbonyl)-1,3,4-oxadiazol-2-yl]methyl}benzenesulfonamide], the IC50 lay within 10 to 100 nM.
As for `COc1cc(C)c(S(=O)(=O)N(Cc2nnc(C(=O)N3CCN(CCCN(C)C)CC3)o2)C2CC2)c(C)c1` [Ex 276, N-Cyclopropyl-N-{[5-({4-[3-(dimethylamino)propyl]piperazin-1-yl}carbonyl)-1,3,4-oxadiazol-2-yl]methyl}-4-methoxy-2,6-dimethylbenzenesulfonamide], the IC50 lay within 10 to 100 nM.
For the molecule `COc1cc(C)c(S(=O)(=O)N(Cc2nnc(C(=O)N3CCN(CCN4CCCC4)CC3)o2)C2CC2)c(C)c1` [Ex 277, N-Cyclopropyl-4-methoxy-2,6-dimethyl-N-[(5-{[4-(2-pyrrolidin-1-ylethyl)piperazin-1-yl]carbonyl}-1,3,4-oxadiazol-2-yl)methyl]benzenesulfonamide], the IC50 fell in the range of 10 to 100 nM.
The value for `COc1cc(C)c(S(=O)(=O)N(C)Cc2nnc(C(=O)N3CCN(CC4CCCN(C)C4)CC3)o2)c(C)c1` (stereo not drawn) [Ex 278, 4-Methoxy-N,2,6-trimethyl-N-{[5-({4-[(1-methylpiperidin-3-yl)methyl]piperazin-1-yl}carbonyl)-1,3,4-oxadiazol-2-yl]methyl}benzenesulfonamide] was 100 to 1000 nM.
Take `COc1cc(C)c(S(=O)(=O)N(C)Cc2nnc(C(=O)N3CCN(CCCN(C)C)CC3)o2)c(C)c1` [Ex 279, N-{[5-({4-[3-(Dimethylamino)propyl]piperazin-1-yl}carbonyl)-1,3,4-oxadiazol-2-yl]methyl}-4-methoxy-N,2,6-trimethylbenzenesulfonamide]: the IC50 was 10 to 100 nM.

Source of the values: patent publication US8623859B2, “Bradykinin B1 antagonists” (Evotec AG, priority 2008, dated 2014).
